In patent publication US10189826B2, “Heterocyclic compounds and methods of use” (Medivation Technologies LLC, priority 2015, dated 2019):
Like-named read-outs stand apart in the source and are kept apart here.

Experiments:
[1] = tested on: SREBP-2 transcriptional activity (SREBP2 cleavage) in HepG2_LSSprom cells; assay: Luciferase reporter driven by a SREBP-2 specific promoter in HepG2_LSSprom cells; format: cell-based; conditions: read-out: SREBP2 Cleavage (IC50 μM) 24 h
Protocol: Dose response effects were measured of Compounds on the transcriptional activity of a Luciferase reporter driven by a SREBP-2 specific promoter in HepG2_LSSprom cells.
(§1) HepG2_LSSprom cells (SwitchGear Genomics, cat# C711010L) were cultured in DMEM with 10% of fetal bovine serum (FBS), supplemented with Puromycin (1 μg/mL), 1% Penicillin/Streptomycin (Pen-Strep), 37° C., humidified, 95% air and 5% CO2. Culture media was refreshed every 2 or 3 days. Cells were used between passage number 6-12.
For luminescence assays, cells were plated out at 20,000 cells/well in white 96 well plates in DMEM plus 10% FBS and 1% Pen-Strep without puromycin. After 1 day, cells were treated with Compound by diluting the drug in culture medium without FBS to a final concentration of 0.625, 1.25, 2.5, 3.75, 5 and 10 μM. Drug was prepared by dilutions of 10 mM stock aliquots. As control was used culture medium without FBS plus DMSO. Treatments with Compound were maintained for 6 h, or 24 h, until the luciferase assay was carried out.
After 6 h of treatments with Compound, the luciferase assay was performed. Briefly, the assay solution (buffer+substrate) was prepare just prior to use. To each well 100 μL of assay solution was added. The 96-well plate was then gently mix for 2 min and incubated for 30 min at RT protected from light. The luminescence was read using a Synergy 4 (Biotek) equipment recording luminescence with sensibility set up at 150.
(§2) Five independent experiments were carried out for both luciferase and cytotoxicity assay. In each experiment, three wells were use per condition and the results are represented as means±SEM.
For luciferase assay, Vehicle (no treatment) was taken as 100% of luciferase activity. This value represents the SREBP-2 transcriptional activity for the vehicle condition and was taken as 100% of SREBP-2 cleaved. The percentage for each treatment was calculated normalizing against the vehicle control. The graphics were made using the GraphPad Prism ver. 6.05 software. Half of maximal inhibitory concentration (IC50) of the effect of Compound on SREBP was obtain by nonlinear fit regression of mean normalized values vs. Compound concentration using the log(inhibitor) vs. response−Variable slope (four parameters) tool.

[2] = Cytotoxicity assay (LDH release) in HepG2_LSSprom cells; format: cell-based; conditions: human, 24 h treatment, LDH release
Protocol: as §1
For cytotoxicity assays, cells were plated out at 20,000 cells/well in transparent 96 well plates in DMEM plus 10% FBS and 1% Pen-Strep without puromycin. After 1 day, cells were treated with Compound by diluting in culture medium without FBS to a final concentration of 0.625, 1.25, 2.5, 3.75, 5 and 10 μM. Compound was prepared by dilutions of 10 mM stock aliquots. As a negative control culture medium was used without FBS plus DMSO. As maximum LDH release control (Lysis control) a lysis buffer provided by the kit manufacturer was used. Treatments with Compound were maintained for 6 h, or 24 h, in cell culture medium without serum until the cytotoxicity assay was started.
The cytotoxicity assay was performed according to the manufacturer's instructions. As maximum LDH release control (Lysis control) 3 wells per plate were treated with 10 μL of lysis buffer 45 min before the treatment was over. Briefly, after the 6 h, or 24 h, of treatment, 50 μL of media from each well was transferred to a new 96-well plate. To the transferred media, 50 μL of reconstituted substrate mix was added. The plates were covered from light and incubated at RT for 10 min. Then, 50 μL of stop solution was added to each well. The plates were then read using a Synergy 4 (Biotek) equipment recording the absorbance at 490 nm.
as §2
For cytotoxicity assay, Lysis control was taken as 100%/o of LDH release. The vehicle values were taken as basal LDH release and were subtracted to all the treatments (including vehicle itself) having this value as 0% of LDH release. The LDH release for the treatments was calculated respect to the 100% of LDH release of Lysis control normalized against vehicle. All the negatives values were taken as 0% of cytotoxicity. The graphics were made using the Graph Prism ver. 6.05 software.

[3] = 24 h, 24 h treatment, HepG2_LSSprom cells

Row | SMILES | IC50 [1, 3] [µM] | IC50 ([1]; 24 h treatment, HepG2_LSSprom cells) [µM] | IC50 at 24 h ([2]; HepG2 LSSprom cells) [µM] | IC50 ([1]; 24 h) [µM] | IC50 at 24 h [2] [µM]
1 | CC(C)(C)c1cc(-c2cc(-c3ccc(C(=O)Nc4ccccc4)cc3Cl)cs2)ccn1 [Compound 23, 4-[5-(2-tert-butylpyridin-4-yl)thiophen-3-yl]-3-chloro-N-phenylbenzamide] | – | – | > 10 | 0.48 | –
2 | CC(C)(C)c1cc(-c2nc(-c3ccc(C(=O)N4CCC(F)(F)CC4)cc3Cl)c[nH]2)ccn1 [Compound 24, 2-tert-butyl-4-{4-[2-chloro-4-(4,4-difluoropiperidine-1-carbonyl)phenyl]-1H-imidazol-2-yl}pyridine] | > 3 | 2.7 | > 10 | – | –
3 | CC(C)N1CCc2cc(-c3csc(-c4ccnc(C(C)(C)C)c4)c3)ccc2C1=O [Compound 35, 6-[5-(2-tert-butylpyridin-4-yl)thiophen-3-yl]-2-(propan-2-yl)-1,2,3,4-tetrahydroisoquinolin-1-one] | 2.4 | – | > 10 | – | –
4 | CCN1CCN(C(=O)c2ccc(-c3csc(-c4ccnc(C(C)(C)C)c4)c3)c(Cl)c2)CC1=O [Compound 39, 4-{4-[5-(2-tert-butylpyridin-4-yl)thiophen-3-yl]-3-chlorobenzoyl}-1-ethylpiperazin-2-one] | – | – | > 10 | 6.2 | –
5 | CC(C)(C)c1cc(-c2csc(-c3ccc(C(=O)N4CCC(F)(F)CC4)cc3Cl)c2)ccn1 [Compound 40, 2-tert-butyl-4-{5-[2-chloro-4-(4,4-difluoropiperidine-1-carbonyl)phenyl]thiophen-3-yl}pyridine] | 0.15 | – | > 10 | – | –
6 | CN(C(=O)c1ccc(-c2csc(-c3ccnc(C(C)(C)C)c3)c2)c(Cl)c1)c1ccccc1 [Compound 41, 4-[5-(2-tert-butylpyridin-4-yl)thiophen-3-yl]-3-chloro-N-methyl-N-phenyl benzamide] | 0.39 | – | > 10 | – | –
7 | CC(C)(C)c1cc(-c2cc(-c3ccc(C(=O)N4CCC4)cc3Cl)cs2)ccn1 [Compound 42, 4-{4-[4-(azetidine-1-carbonyl)-2-chlorophenyl]thiophen-2-yl}-2-tert-butylpyridine] | – | – | > 10 | 0.84 | –
8 | CC(C)(C)c1cc(-c2cc(-c3ccc(C(=O)N4CC5(COC5)C4)cc3Cl)cs2)ccn1 [Compound 43, 6-{4-[5-(2-tert-butylpyridin-4-yl)thiophen-3-yl]-3-chlorobenzoyl}-2-oxa-6-azaspiro[3.3]heptane] | 3.8 | – | – | – | > 10
9 | CCOC(=O)NC1CCCN(C(=O)c2ccc(-c3csc(-c4ccnc(C(C)(C)C)c4)c3)c(Cl)c2)C1 (stereo not shown) [Compound 44, ethyl N-(1-{4-[5-(2-tert-butylpyridin-4-yl)thiophen-3-yl]-3-chlorobenzoyl}piperidin-3-yl)carbamate] | – | – | > 10 | 0.44 | –
10 | CCOC(=O)N1CCN(C(=O)c2ccc(-c3csc(-c4ccnc(C(C)(C)C)c4)c3)c(Cl)c2)CC1 [Compound 45, ethyl 4-{4-[5-(2-tert-butylpyridin-4-yl)thiophen-3-yl]-3-chlorobenzoyl}piperazine-1-carboxylate] | – | – | > 10 | 1.8 | –
11 | CC(C)(C)C(=O)N1CCN(C(=O)c2ccc(-c3csc(-c4ccnc(C(C)(C)C)c4)c3)c(Cl)c2)CC1 [Compound 46, 1-(4-{4-[5-(2-tert-butylpyridin-4-yl)thiophen-3-yl]-3-chlorobenzoyl}piperazin-1-yl)-2,2-dimethylpropan-1-one] | 1.3 | – | > 10 | – | –
12 | CC(C)(C)c1cc(-c2cc(-c3ccc(C(=O)N4CCC[C@@H](O)C4)cc3Cl)cs2)ccn1 [Compound 48a, (R)-(4-(5-(2-(tert-butyl)pyridin-4-yl)thiophen-3-yl)-3-chlorophenyl)(3-hydroxypiperidin-1-yl)methanone] | 0.31 | – | > 10 | – | –

The next lines start with results.

Row | IC50 [1, 3] [µM] | IC50 ([1]; 24 h treatment, HepG2_LSSprom cells) [µM] | SMILES | IC50 at 24 h ([2]; HepG2 LSSprom cells) [µM] | IC50 ([1]; 24 h) [µM] | IC50 at 24 h [2] [µM]
13 | 0.82 | – | CC(C)(C)c1cc(-c2cc(-c3ccc(C(=O)N4CCOCC4)cc3Cl)cs2)ccn1 [Compound 22, 4-{4-[5-(2-tert-butylpyridin-4-yl)thiophen-3-yl]-3-chlorobenzoyl}morpholine] | > 3 | – | –
14 | 0.62 | – | CC(C)(C)c1cc(-c2nc(-c3ccc(C(=O)N4CCCCC4)cc3Cl)c[nH]2)ccn1 [Compound 25, 2-tert-butyl-4-{4-[2-chloro-4-(piperidine-1-carbonyl)phenyl]-1H-imidazol-2-yl}pyridine] | > 10 | – | –
15 | > 3 | – | CN1CCc2cc(-c3csc(-c4ccnc(C(C)(C)C)c4)c3)ccc2C1=O [Compound 26, 6-[5-(2-tert-butylpyridin-4-yl)thiophen-3-yl]-2-methyl-1,2,3,4-tetrahydroisoquinolin-1-one] | > 10 | – | –
16 | 0.68 | – | CC(C)(C)OC(=O)N1CCN(C(=O)c2ccc(-c3csc(-c4ccnc(C(C)(C)C)c4)c3)c(Cl)c2)CC1 [Compound 27, tert-butyl 4-{4-[5-(2-tert-butylpyridin-4-yl)thiophen-3-yl]-3-chlorobenzoyl}piperazine-1-carboxylate] | > 10 | – | –
17 | > 3 | – | CC(C)(C)c1cc(-c2cc(-c3ccc(C(=O)N4CCNCC4)cc3Cl)cs2)ccn1 [Compound 28, 1-{4-[5-(2-tert-butylpyridin-4-yl)thiophen-3-yl]-3-chlorobenzoyl}piperazine] | > 10 | – | –
18 | 1.4 | – | CC(=O)N1CCN(C(=O)c2ccc(-c3csc(-c4ccnc(C(C)(C)C)c4)c3)c(Cl)c2)CC1 [Compound 29, 1-(4-{4-[5-(2-tert-butylpyridin-4-yl)thiophen-3-yl]-3-chlorobenzoyl}piperazin-1-yl)ethan-1-one] | > 10 | – | –
19 | 2.5 | – | CC(C)(C)c1cc(-c2cc(-c3ccc(C(=O)N4CCN(S(C)(=O)=O)CC4)cc3Cl)cs2)ccn1 [Compound 30, 1-{4-[5-(2-tert-butylpyridin-4-yl)thiophen-3-yl]-3-chlorobenzoyl}-4-methane sulfonylpiperazine] | > 10 | – | –
20 | 0.21 | – | CC(C)N(C(=O)c1ccc(-c2csc(-c3ccnc(C(C)(C)C)c3)c2)c(Cl)c1)C(C)C [Compound 33, 4-[5-(2-tert-butylpyridin-4-yl)thiophen-3-yl]-3-chloro-N,N-bis(propan-2-yl) benzamide] | > 10 | – | –
21 | 0.91 | – | CC(C)(C)OC(=O)NC1CCN(C(=O)c2ccc(-c3csc(-c4ccnc(C(C)(C)C)c4)c3)c(Cl)c2)CC1 [Compound 37, tert-butyl N-(1-{4-[5-(2-tert-butylpyridin-4-yl)thiophen-3-yl]-3-chlorobenzoyl}piperidin-4-yl)carbamate] | > 10 | – | –
22 | 2.1 | – | CC(=O)NC1CCN(C(=O)c2ccc(-c3csc(-c4ccnc(C(C)(C)C)c4)c3)c(Cl)c2)CC1 [Compound 38, N-(1-{4-[5-(2-tert-butylpyridin-4-yl)thiophen-3-yl]-3-chlorobenzoyl}piperidin-4-yl) acetamide] | > 10 | – | –
23 | 0.33 | – | CCN(CCNC(C)=O)C(=O)c1ccc(-c2csc(-c3ccnc(C(C)(C)C)c3)c2)c(Cl)c1 [Compound 47, N-[2-(1-{4-[5-(2-tert-butylpyridin-4-yl)thiophen-3-yl]-3-chlorophenyl}-N-ethylformamido)ethyl]acetamide] | > 10 | – | –
24 | 0.26 | – | CC(C)(C)c1cc(-c2cc(-c3ccc(C(=O)N4CCCC(O)C4)cc3Cl)cs2)ccn1 (stereo not shown) [Compound 48, 1-{4-[5-(2-tert-butylpyridin-4-yl)thiophen-3-yl]-3-chlorobenzoyl}piperidin-3-ol] | > 10 | – | –
